Columns and labels:
Test in all cases: radiometric filter-binding kinase assay
PLK1 (human) = PLK1 (human) (UniProt P53350)
TBK1 (human) = TBK1 (human) (UniProt Q9UHD2)
SRPK1 (human) = SRPK1 (human) (UniProt Q96SB4)
MAPK1 (human) = MAPK1 (human) (UniProt P28482)
[1] = biological target: STK11 CAB39 STRADA (human) (UniProt Q9Y376+Q7RTN6+Q15831)
MAPKAPK3 (human) = MAPKAPK3 (human) (UniProt Q16644)
MAP2K6 (human) = MAP2K6 (human) (UniProt P52564)
NEK6 (human) = NEK6 (human) (UniProt Q9HC98)
BRSK1 (human) = BRSK1 (human) (UniProt Q8TDC3)
Chain of BRSK1 (human) (Q8TDC3 whole entry, looked up): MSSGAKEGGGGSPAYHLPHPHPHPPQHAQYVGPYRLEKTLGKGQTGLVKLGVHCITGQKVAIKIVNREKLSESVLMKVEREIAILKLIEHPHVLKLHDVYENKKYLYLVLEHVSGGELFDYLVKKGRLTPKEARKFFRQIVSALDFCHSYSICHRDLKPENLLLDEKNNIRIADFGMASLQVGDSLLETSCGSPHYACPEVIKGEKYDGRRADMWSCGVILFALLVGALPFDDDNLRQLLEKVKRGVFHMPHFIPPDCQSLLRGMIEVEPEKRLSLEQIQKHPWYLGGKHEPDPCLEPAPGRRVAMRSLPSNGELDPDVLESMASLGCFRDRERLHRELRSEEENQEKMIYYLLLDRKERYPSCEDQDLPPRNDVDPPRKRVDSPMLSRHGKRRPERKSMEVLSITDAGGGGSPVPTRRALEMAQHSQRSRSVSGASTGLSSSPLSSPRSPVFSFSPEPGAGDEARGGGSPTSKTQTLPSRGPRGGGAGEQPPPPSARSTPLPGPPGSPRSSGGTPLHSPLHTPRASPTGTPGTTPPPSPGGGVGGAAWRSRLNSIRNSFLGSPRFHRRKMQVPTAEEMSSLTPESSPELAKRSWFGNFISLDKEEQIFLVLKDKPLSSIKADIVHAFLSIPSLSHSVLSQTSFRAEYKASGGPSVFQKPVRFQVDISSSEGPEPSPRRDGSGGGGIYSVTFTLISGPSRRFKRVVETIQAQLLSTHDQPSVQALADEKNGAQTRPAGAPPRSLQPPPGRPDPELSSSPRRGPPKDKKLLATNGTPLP

BTK (human) = BTK (human) (UniProt Q06187)
MKNK2 (human) = MKNK2 (human) (UniProt Q9HBH9)
AURKA (human) = AURKA (human) (UniProt O14965)
[2] = test system: AKT1 (human), P31749 [S473D]
MAPK15 (human) = MAPK15 (human) (UniProt Q8TD08)
RPS6KA5 KD1 KD2 (human) = RPS6KA5 KD1 KD2 (human) (UniProt O75582)
PAK7 (human) = PAK7 (human) (UniProt Q9P286)
[3] = test system: PAK2 (human), Q13177 [T402E]
MAP3K5 (human) = MAP3K5 (human) (UniProt Q99683)
CSK (human) = CSK (human) (UniProt P41240)
CSNK1D (human) = CSNK1D (human) (UniProt P48730)
EEF2K (human) = EEF2K (human) (UniProt O00418)
Chain of EEF2K (human) (O00418 whole entry, looked up): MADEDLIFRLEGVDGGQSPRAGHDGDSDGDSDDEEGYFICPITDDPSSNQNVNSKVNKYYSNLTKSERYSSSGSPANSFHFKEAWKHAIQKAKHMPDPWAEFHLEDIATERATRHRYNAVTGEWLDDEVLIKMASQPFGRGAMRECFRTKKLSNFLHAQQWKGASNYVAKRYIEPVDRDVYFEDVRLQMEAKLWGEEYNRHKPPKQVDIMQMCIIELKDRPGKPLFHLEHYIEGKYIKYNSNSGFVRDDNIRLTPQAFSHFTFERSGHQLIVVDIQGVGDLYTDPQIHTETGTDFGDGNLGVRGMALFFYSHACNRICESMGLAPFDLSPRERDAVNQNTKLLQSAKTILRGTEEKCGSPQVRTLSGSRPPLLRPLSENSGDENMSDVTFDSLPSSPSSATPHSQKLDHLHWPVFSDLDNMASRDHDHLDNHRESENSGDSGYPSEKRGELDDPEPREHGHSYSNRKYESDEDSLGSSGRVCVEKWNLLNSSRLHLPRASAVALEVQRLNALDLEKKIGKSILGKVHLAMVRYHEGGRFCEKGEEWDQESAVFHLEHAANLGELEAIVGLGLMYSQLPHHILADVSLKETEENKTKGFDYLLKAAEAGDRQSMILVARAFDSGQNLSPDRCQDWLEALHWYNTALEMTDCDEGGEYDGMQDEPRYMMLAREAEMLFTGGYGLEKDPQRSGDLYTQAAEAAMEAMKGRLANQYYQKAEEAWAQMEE

FGFR1 (human) = FGFR1 (human) (UniProt P11362)
MAPK9 (human) = MAPK9 (human) (UniProt P45984)
HIPK1 (human) = HIPK1 (human) (UniProt Q86Z02)
MAP2K2 (human) = MAP2K2 (human) (UniProt P36507)
EPHA4 (human) = EPHA4 (human) (UniProt P54764)
MAPK8 (human) = MAPK8 (human) (UniProt P45983)
Chain of MAPK8 (human) (P45983 whole entry, looked up): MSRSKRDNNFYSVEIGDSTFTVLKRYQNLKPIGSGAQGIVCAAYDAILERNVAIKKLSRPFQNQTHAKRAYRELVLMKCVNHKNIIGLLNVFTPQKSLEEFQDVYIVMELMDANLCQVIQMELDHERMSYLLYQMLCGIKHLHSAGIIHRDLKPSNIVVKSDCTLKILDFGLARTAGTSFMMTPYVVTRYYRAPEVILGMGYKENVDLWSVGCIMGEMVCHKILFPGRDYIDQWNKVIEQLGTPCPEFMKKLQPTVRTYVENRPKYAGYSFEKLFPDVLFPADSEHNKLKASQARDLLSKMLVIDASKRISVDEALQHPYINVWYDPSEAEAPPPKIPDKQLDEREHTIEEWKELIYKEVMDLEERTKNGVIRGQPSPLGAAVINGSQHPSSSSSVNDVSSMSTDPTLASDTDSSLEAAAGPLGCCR

HIPK3 (human) = HIPK3 (human) (UniProt Q9H422)
BRSK2 (human) = BRSK2 (human) (UniProt Q8IWQ3)
Chain of BRSK2 (human) (Q8IWQ3 whole entry, looked up): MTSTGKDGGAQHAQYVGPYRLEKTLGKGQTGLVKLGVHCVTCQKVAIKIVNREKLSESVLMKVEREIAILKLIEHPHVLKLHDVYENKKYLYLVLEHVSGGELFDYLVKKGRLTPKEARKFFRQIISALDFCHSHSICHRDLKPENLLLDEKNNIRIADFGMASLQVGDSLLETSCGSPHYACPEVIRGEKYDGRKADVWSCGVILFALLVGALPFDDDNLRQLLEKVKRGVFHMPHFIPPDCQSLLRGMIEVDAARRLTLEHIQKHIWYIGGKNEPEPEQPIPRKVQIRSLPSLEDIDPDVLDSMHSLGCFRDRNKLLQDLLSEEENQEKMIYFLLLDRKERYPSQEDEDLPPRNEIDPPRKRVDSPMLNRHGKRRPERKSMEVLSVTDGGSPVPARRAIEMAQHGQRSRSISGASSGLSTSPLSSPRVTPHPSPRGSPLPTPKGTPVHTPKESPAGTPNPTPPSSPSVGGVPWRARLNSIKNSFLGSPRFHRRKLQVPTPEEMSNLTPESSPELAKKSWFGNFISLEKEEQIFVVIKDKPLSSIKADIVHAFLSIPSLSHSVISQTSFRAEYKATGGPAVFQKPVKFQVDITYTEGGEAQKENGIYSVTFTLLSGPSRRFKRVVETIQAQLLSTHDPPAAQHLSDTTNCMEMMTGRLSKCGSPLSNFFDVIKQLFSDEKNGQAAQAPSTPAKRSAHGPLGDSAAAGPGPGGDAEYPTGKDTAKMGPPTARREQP

ERBB4 (human) = ERBB4 (human) (UniProt Q15303)
Chain of ERBB4 (human) (Q15303 whole entry, looked up): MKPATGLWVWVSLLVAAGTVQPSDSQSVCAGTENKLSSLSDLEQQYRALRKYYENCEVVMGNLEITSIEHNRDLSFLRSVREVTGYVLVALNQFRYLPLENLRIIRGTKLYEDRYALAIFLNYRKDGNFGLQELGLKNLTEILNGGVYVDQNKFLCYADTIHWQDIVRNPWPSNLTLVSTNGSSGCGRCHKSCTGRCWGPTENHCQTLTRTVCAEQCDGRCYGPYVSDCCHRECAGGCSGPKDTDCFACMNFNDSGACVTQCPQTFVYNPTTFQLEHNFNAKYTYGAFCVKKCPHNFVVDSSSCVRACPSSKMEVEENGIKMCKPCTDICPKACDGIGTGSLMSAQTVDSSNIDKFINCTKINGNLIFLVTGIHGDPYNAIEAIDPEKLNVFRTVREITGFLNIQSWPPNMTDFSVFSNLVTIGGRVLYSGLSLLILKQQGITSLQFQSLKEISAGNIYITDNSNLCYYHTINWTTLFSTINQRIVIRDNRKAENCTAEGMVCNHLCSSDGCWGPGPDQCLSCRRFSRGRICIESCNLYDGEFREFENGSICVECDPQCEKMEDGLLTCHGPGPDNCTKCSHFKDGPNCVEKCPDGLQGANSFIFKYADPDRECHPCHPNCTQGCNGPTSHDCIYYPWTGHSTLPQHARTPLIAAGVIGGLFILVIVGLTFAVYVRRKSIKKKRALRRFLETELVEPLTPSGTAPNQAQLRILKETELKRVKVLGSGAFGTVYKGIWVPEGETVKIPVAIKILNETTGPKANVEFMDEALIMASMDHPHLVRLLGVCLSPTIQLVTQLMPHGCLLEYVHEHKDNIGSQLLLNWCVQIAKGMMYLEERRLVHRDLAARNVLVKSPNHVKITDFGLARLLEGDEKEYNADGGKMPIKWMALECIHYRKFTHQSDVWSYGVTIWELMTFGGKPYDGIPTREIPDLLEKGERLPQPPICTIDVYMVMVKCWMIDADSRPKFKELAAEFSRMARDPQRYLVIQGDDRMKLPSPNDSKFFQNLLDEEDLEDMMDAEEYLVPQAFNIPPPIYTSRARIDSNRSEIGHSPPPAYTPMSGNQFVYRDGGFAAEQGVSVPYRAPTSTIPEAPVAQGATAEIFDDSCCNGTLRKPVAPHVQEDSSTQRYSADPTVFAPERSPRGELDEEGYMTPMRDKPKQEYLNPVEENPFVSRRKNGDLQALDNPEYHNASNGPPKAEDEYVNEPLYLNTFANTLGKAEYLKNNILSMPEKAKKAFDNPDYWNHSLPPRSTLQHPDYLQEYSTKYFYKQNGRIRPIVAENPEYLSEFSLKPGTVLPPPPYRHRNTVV

MAPK3 (human) = MAPK3 (human) (UniProt P27361)
MAP3K1 (human) = MAP3K1 (human) (UniProt Q13233)
IKBKB (human) = IKBKB (human) (UniProt O14920)
Chain of IKBKB (human) (O14920 whole entry, looked up): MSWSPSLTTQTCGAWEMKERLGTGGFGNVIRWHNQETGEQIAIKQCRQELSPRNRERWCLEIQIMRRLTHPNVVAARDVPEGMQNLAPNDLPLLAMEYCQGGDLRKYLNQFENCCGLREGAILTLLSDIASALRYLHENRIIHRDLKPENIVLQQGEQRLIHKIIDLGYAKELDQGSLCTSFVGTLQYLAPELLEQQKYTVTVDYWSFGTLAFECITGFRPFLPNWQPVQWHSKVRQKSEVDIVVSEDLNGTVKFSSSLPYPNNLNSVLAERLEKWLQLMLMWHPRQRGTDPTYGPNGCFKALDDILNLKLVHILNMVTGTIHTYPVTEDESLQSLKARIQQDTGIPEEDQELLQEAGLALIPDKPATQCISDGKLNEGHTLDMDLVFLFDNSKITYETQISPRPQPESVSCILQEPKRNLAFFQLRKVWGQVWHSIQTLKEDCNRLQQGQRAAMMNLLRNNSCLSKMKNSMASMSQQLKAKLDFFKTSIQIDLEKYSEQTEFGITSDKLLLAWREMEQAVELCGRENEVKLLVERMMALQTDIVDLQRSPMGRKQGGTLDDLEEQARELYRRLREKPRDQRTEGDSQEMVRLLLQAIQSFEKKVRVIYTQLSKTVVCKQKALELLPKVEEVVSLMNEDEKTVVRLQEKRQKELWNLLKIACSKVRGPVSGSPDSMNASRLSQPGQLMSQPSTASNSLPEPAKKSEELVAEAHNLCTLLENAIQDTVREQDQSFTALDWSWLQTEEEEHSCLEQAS

RPS6KA3 KD1 KD2 (human) = RPS6KA3 KD1 KD2 (human) (UniProt P51812)
GSK3B (human) = GSK3B (human) (UniProt P49841)

Chain of NEK6 (human) (Q9HC98 whole entry, looked up): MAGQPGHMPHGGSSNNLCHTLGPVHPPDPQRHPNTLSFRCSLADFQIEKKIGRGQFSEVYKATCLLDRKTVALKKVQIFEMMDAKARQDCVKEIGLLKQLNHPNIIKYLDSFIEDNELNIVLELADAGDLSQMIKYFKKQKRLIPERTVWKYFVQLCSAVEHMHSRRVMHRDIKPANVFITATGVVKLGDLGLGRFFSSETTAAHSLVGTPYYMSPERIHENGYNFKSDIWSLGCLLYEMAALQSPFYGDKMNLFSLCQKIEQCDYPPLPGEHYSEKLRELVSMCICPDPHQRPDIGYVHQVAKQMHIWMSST

- residual activity (PLK1 (human); compound 0.01 µM): 95%
- residual activity (PLK1 (human); compound 0.1 µM): 113%
- residual activity (TBK1 (human); compound 0.01 µM): 110%
- residual activity (TBK1 (human); compound 0.1 µM): 115%
- residual activity (TBK1 (human); compound 1.0 µM): 89%
- residual activity (TBK1 (human); compound 10.0 µM): 81%
- residual activity (SRPK1 (human); compound 0.01 µM): 106%
- residual activity (SRPK1 (human); compound 0.1 µM): 120%
- residual activity (SRPK1 (human); compound 1.0 µM): 104%
- residual activity (SRPK1 (human); compound 10.0 µM): 90%
- residual activity (MAPK1 (human); compound 0.01 µM): 117%
- residual activity (MAPK1 (human); compound 0.1 µM): 111%
- residual activity (MAPK1 (human); compound 1.0 µM): 107%
- residual activity (MAPK1 (human); compound 10.0 µM): 109%
- residual activity ([1]; compound 0.01 µM): 104%
- residual activity ([1]; compound 0.1 µM): 124%
- residual activity ([1]; compound 1.0 µM): 110%
- residual activity ([1]; compound 10.0 µM): 103%
- residual activity (MAPKAPK3 (human); compound 0.01 µM): 112%
- residual activity (MAPKAPK3 (human); compound 0.1 µM): 112%
- residual activity (MAPKAPK3 (human); compound 1.0 µM): 91%
- residual activity (MAPKAPK3 (human); compound 10.0 µM): 68%
- residual activity (MAP2K6 (human); compound 1.0 µM): 87%
- residual activity (MAP2K6 (human); compound 10.0 µM): 94%
- residual activity (NEK6 (human); compound 0.01 µM): 98%
- residual activity (NEK6 (human); compound 0.1 µM): 101%
- residual activity (NEK6 (human); compound 1.0 µM): 84%
- residual activity (NEK6 (human); compound 10.0 µM): 79%
- residual activity (BRSK1 (human); compound 0.01 µM): 110%
- residual activity (BRSK1 (human); compound 0.1 µM): 95%
- residual activity (BRSK1 (human); compound 1.0 µM): 53%
- residual activity (BRSK1 (human); compound 10.0 µM): 11%
- residual activity (BTK (human); compound 0.01 µM): 126%
- residual activity (BTK (human); compound 0.1 µM): 121%
- residual activity (BTK (human); compound 1.0 µM): 97%
- residual activity (BTK (human); compound 10.0 µM): 90%
- residual activity (MKNK2 (human); compound 0.01 µM): 91%
- residual activity (MKNK2 (human); compound 1.0 µM): 80%
- residual activity (MKNK2 (human); compound 10.0 µM): 94%
- residual activity (AURKA (human); compound 0.01 µM): 112%
- residual activity (AURKA (human); compound 0.1 µM): 115%
- residual activity (AURKA (human); compound 1.0 µM): 98%
- residual activity (AURKA (human); compound 10.0 µM): 89%
- residual activity ([2]; compound 1.0 µM): 98%
- residual activity ([2]; compound 10.0 µM): 36%
- residual activity (RPS6KA5 KD1 KD2 (human); compound 0.01 µM): 102%
- residual activity (RPS6KA5 KD1 KD2 (human); compound 0.1 µM): 100%
- residual activity (RPS6KA5 KD1 KD2 (human); compound 1.0 µM): 95%
- residual activity (RPS6KA5 KD1 KD2 (human); compound 10.0 µM): 66%
- residual activity (PAK7 (human); compound 0.01 µM): 97%
- residual activity (PAK7 (human); compound 0.1 µM): 101%
- residual activity (PAK7 (human); compound 1.0 µM): 97%
- residual activity (PAK7 (human); compound 10.0 µM): 99%
- residual activity ([3]; compound 0.01 µM): 105%
- residual activity ([3]; compound 0.1 µM): 119%
- residual activity ([3]; compound 1.0 µM): 102%
- residual activity ([3]; compound 10.0 µM): 77%
- residual activity (MAP3K5 (human); compound 1.0 µM): 106%
- residual activity (MAP3K5 (human); compound 10.0 µM): 99%
- residual activity (CSK (human); compound 0.01 µM): 103%
- residual activity (CSK (human); compound 0.1 µM): 104%
- residual activity (CSK (human); compound 1.0 µM): 100%
- residual activity (CSK (human); compound 10.0 µM): 93%
- residual activity (CSNK1D (human); compound 0.01 µM): 100%
- residual activity (CSNK1D (human); compound 0.1 µM): 108%
- residual activity (CSNK1D (human); compound 1.0 µM): 96%
- residual activity (CSNK1D (human); compound 10.0 µM): 88%
- residual activity (EEF2K (human); compound 0.01 µM): 108%
- residual activity (EEF2K (human); compound 0.1 µM): 100%
- residual activity (EEF2K (human); compound 1.0 µM): 105%
- residual activity (EEF2K (human); compound 10.0 µM): 100%
- residual activity (FGFR1 (human); compound 0.01 µM): 119%
- residual activity (FGFR1 (human); compound 0.1 µM): 119%
- residual activity (FGFR1 (human); compound 1.0 µM): 105%
- residual activity (FGFR1 (human); compound 10.0 µM): 88%
- residual activity (MAPK9 (human); compound 0.01 µM): 117%
- residual activity (MAPK9 (human); compound 0.1 µM): 126%
- residual activity (MAPK9 (human); compound 1.0 µM): 104%
- residual activity (MAPK9 (human); compound 10.0 µM): 114%
- residual activity (HIPK1 (human); compound 0.01 µM): 102%
- residual activity (HIPK1 (human); compound 0.1 µM): 105%
- residual activity (HIPK1 (human); compound 1.0 µM): 94%
- residual activity (HIPK1 (human); compound 10.0 µM): 112%
- residual activity (MAP2K2 (human); compound 1.0 µM): 114%
- residual activity (MAP2K2 (human); compound 10.0 µM): 94%
- residual activity (EPHA4 (human); compound 1.0 µM): 86%
- residual activity (EPHA4 (human); compound 10.0 µM): 98%
- residual activity (MAPK8 (human); compound 0.01 µM): 92%
- residual activity (MAPK8 (human); compound 0.1 µM): 108%
- residual activity (MAPK8 (human); compound 1.0 µM): 94%
- residual activity (MAPK8 (human); compound 10.0 µM): 108%
- residual activity (HIPK3 (human); compound 0.01 µM): 111%
- residual activity (HIPK3 (human); compound 0.1 µM): 105%
- residual activity (HIPK3 (human); compound 1.0 µM): 99%
- residual activity (HIPK3 (human); compound 10.0 µM): 103%
- residual activity (BRSK2 (human); compound 0.01 µM): 114%
- residual activity (BRSK2 (human); compound 0.1 µM): 110%
- residual activity (BRSK2 (human); compound 10.0 µM): 15%
- residual activity (ERBB4 (human); compound 0.01 µM): 106%
- residual activity (ERBB4 (human); compound 0.1 µM): 107%
- residual activity (ERBB4 (human); compound 1.0 µM): 106%
- residual activity (ERBB4 (human); compound 10.0 µM): 101%
- residual activity (MAPK3 (human); compound 0.01 µM): 93%
- residual activity (MAPK3 (human); compound 0.1 µM): 106%
- residual activity (MAPK3 (human); compound 1.0 µM): 103%
- residual activity (MAPK3 (human); compound 10.0 µM): 108%
- residual activity (MAP3K1 (human); compound 1.0 µM): 87%
- residual activity (MAP3K1 (human); compound 10.0 µM): 104%
- residual activity (IKBKB (human); compound 0.01 µM): 105%
- residual activity (IKBKB (human); compound 0.1 µM): 112%
- residual activity (IKBKB (human); compound 1.0 µM): 118%
- residual activity (IKBKB (human); compound 10.0 µM): 103%
- residual activity (RPS6KA3 KD1 KD2 (human); compound 0.1 µM): 97%
- residual activity (RPS6KA3 KD1 KD2 (human); compound 1.0 µM): 79%
- residual activity (RPS6KA3 KD1 KD2 (human); compound 10.0 µM): 28%
- residual activity (GSK3B (human); compound 0.01 µM): 108%
- residual activity (GSK3B (human); compound 0.1 µM): 111%
- residual activity (GSK3B (human); compound 1.0 µM): 106%
SMILES: CNc1nc(-c2ccc3c(N)n[nH]c3c2)cc(N2C[C@@H](C(=O)NC3CCCCC3)CC[C@H]2C)n1
- residual activity (MAPK15 (human); compound 0.01 µM): 106%
- residual activity (MAPK15 (human); compound 0.1 µM): 117%
- residual activity (MAPK15 (human); compound 1.0 µM): 99%
- residual activity (MAPK15 (human); compound 10.0 µM): 83%
